The values that follow come from patent publication US9149465B2, “Isoxazolines as inhibitors of fatty acid amide hydrolase” (Infinity Pharmaceuticals, Inc., priority 2009, dated 2015).

By Ki is commonly meant a measure of affinity in units of concentration, obtained from inhibition or displacement.

The test has as its target T1, human FAAH (Homo sapiens, UniProt O00519).
T1 construct: host or cells: COS-7 cells, transient transfection; 13,000 g membrane fraction solubilised in 1% Triton X-100
T1 sequence (O00519 1-579): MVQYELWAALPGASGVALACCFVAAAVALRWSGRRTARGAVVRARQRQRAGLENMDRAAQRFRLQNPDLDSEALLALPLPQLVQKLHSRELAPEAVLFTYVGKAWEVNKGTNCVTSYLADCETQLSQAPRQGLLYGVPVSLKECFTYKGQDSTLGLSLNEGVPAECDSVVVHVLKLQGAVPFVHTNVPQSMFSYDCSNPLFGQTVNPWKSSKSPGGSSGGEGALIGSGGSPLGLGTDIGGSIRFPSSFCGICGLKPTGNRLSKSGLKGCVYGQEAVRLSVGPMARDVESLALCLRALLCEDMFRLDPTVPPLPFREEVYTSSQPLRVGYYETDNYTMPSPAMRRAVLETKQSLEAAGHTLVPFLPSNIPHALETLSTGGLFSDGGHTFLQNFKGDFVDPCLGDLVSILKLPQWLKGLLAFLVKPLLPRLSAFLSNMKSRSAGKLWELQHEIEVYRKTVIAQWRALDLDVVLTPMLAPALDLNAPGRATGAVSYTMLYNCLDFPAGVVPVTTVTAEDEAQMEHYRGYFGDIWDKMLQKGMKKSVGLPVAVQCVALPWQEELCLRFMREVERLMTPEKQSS
Kind of test: Inhibition of human FAAH (AMC arachidonoyl amide fluorescence assay). It counts as biochemical. The following applies: inhibitor preincubated 30 minutes at room temperature; 20 μM AMC arachidonoyl amide; 4 hours; read-out: Activity (Ki, inhibitors of human FAAH). The method, boiled down:
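Solubilized membrane fraction from COS-7 cells transiently expressing human FAAH (0.05 mg/mL final) preincubated 30 min at room temperature with 3-fold serially diluted inhibitor, then reacted 4 h at room temperature with 20 μM AMC arachidonoyl amide. Stopped with α-ketoheterocycle; fluorescence read. Ki from single-site competitive fit, Km fixed at 12 μM.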
As for `Cc1nnc(-c2cccc(OC3=NOC(c4ccc(Oc5ccccc5)cc4)C3)c2)o1` (racemic) [I-160], the Ki is no more than 100 nM.
With `N#Cc1ccccc1OC1=NOC(c2ccc(Oc3ccccc3)cc2)C1` (single isomer, unassigned) [I-28], the inhibition constant Ki is no less than 1000 nM.
For `c1ccc(-c2ccc([C@H]3CC(Oc4cncnc4)=NO3)cc2)cc1` (racemic) [I-103], the inhibition constant (Ki) was no more than 100 nM.
Regarding `COc1cccc(C2CC(Br)=NO2)c1` (single isomer, unassigned) [I-7], the Ki lay in the range of 100 to 1000 nM.
Turning to `COc1ccc([C@H]2CC(Oc3cccnc3)=NO2)cc1` (racemic) [I-38], the Ki fell in the range of 100 to 1000 nM.
With `NC(=O)CNC(=O)c1ccc(OC2=NOC(c3ccc(OC(F)(F)F)cc3)C2)cn1` (racemic) [I-118] the figure was 100 to 1000 nM.
Turning to `Cc1nnc(-c2ccc(OC3=NOC(C)(c4ccc(OC(F)(F)F)cc4)C3)cn2)s1` (racemic) [I-158], the Ki is no more than 100 nM.
For `BrC1=NOC(c2ccccc2)C1` (single isomer, unassigned) [I-1], the inhibition constant (Ki) lay in the range of 100 to 1000 nM.
`FC1(F)Oc2ccc([C@H]3CC(Oc4cncnc4)=NO3)cc2O1` (racemic) [I-127]: the Ki was in the range of 100 to 1000 nM.
On to `c1ccc(NC2=NOC(c3ccc(Oc4ccccc4)cc3)C2)cc1` (single isomer, unassigned) [I-32], for which the Ki was no less than 1000 nM.
Take `O=C(O)c1cncc(OC2=NOC(c3ccc(OC(F)(F)F)cc3)C2)c1` (racemic) [I-55]: the Ki is no less than 1000 nM.
With `FC(F)(F)Oc1ccc(C2CC(Oc3ccc(-c4ccccc4)nc3)=NO2)cc1` (racemic) [I-86], the Ki was in the range of 100 to 1000 nM.
As to `O=C(c1ccc([C@H]2CC(Br)=NO2)cc1)N1CCCCC1` (racemic) [I-208], the Ki is no more than 100 nM.
On to `BrC1=NOC(c2ccc(-c3nnc(-c4ccccc4)o3)cc2)C1` (single isomer, unassigned) [I-19], for which the Ki is no more than 100 nM.
As to `NC(=O)c1cncc(OC2=NOC(c3ccc(OC(F)(F)F)cc3)C2)c1` (racemic) [I-53], the inhibitory constant (Ki) lay within 100 to 1000 nM.
As for `CCCCc1ccc([C@H]2CC(Oc3cncnc3)=NO2)cc1` (racemic) [I-180], the Ki is no more than 100 nM.
In the case of `COC(=O)c1cncc(OC2=NOC(c3ccc(Oc4ccccc4)cc3)C2)c1` (single isomer, unassigned) [I-39], the Ki was no more than 100 nM.
With `FC(F)(F)Oc1ccc(C2CC(Oc3ccc(-c4cnn[nH]4)nc3)=NO2)cc1` (racemic) [I-236] the figure was no more than 100 nM; with `COc1ccc([C@@H]2ON=C(Br)[C@H]2C)cc1` (racemic) [I-77], no less than 1000 nM.
As for `CS(=O)(=O)c1ccc(OC2=NOC(c3ccc(C(F)(F)F)cc3)C2)cn1` (racemic) [I-169], the Ki was no more than 100 nM.
Consider `COC1=NOC(c2ccc(Oc3ccccc3)cc2)C1` (single isomer, unassigned) [I-45], for which the Ki is no less than 1000 nM.
As to `Cn1cc(-c2ccc(OC3=NOC(c4ccc(OC(F)(F)F)cc4)C3)cn2)cn1` (racemic) [I-218], the Ki was no more than 100 nM.
Regarding `N#Cc1ccc(OC2=NOC(c3ccc(OC(F)(F)F)cc3)C2)cn1` (racemic) [I-178], the Ki fell in the range of 100 to 1000 nM.
`O=C(O)c1ccc(OC2=NOC(c3ccc(OC(F)(F)F)cc3)C2)cc1` (racemic) [I-177]: the Ki lay within 100 to 1000 nM.
With `FC(F)(F)Oc1ccc([C@H]2CC(Br)=NO2)cc1Cl` (racemic) [I-124] the figure was no more than 100 nM; with `CC1(c2ccc(OC(F)(F)F)cc2)CC(Oc2cc3ccccn3n2)=NO1` (racemic) [I-172], no less than 1000 nM.
On to `FC(F)(F)Oc1ccc(C2CC(Oc3cncnc3)=NO2)cc1` (racemic) [I-112], for which the inhibition constant Ki was no more than 100 nM.
Take `CCNC(=O)c1ccc(OC2=NOC(C)(c3ccc(OC(F)(F)F)cc3)C2)cn1` (racemic) [I-115]: the Ki is no more than 100 nM.
As to `O=C(O)c1ccc(OC2=NOC(c3ccc(Oc4ccccc4)cc3)C2)cc1` (racemic) [I-147], the inhibition constant Ki was no more than 100 nM.
Take `BrC1=NO[C@@H](c2ccc(Br)cc2)C1` (racemic) [I-148]: the inhibition constant Ki is no more than 100 nM.
Consider `CC1(c2ccc(OC(F)(F)F)cc2)CC(Oc2cccc(-c3nnco3)c2)=NO1` (racemic) [I-232], for which the Ki is no more than 100 nM.
Take `CC(C)Oc1ccc([C@H]2CC(Br)=NO2)cc1` (racemic) [I-15]: the Ki was no more than 100 nM.
On to `Cc1ccc(OC2=NOC(c3ccc(Oc4ccccc4)cc3)C2)cc1F` (single isomer, unassigned) [I-31], for which the Ki is no less than 1000 nM.
Turning to `Cn1nc(C(F)(F)F)cc1-c1ccc(OC2=NOC(c3ccc(OC(F)(F)F)cc3)C2)cn1` (racemic) [I-191], the Ki is no less than 1000 nM.
For the molecule `c1ccc(Oc2ccc(C3CC(Oc4cncnc4)=NO3)cc2)cc1` (single isomer, unassigned) [I-41], the Ki was no more than 100 nM.
In the case of `Cc1nnc(-c2cccc(OC3=NOC(c4ccc(OC(F)(F)F)cc4)C3)c2)o1` (racemic) [I-223], the Ki was no more than 100 nM.
On to `CN(C1=NOC(c2ccc(OC(F)(F)F)cc2)C1)c1ccc(C(=O)O)cc1` (racemic) [I-255], for which the inhibition constant Ki was no less than 1000 nM.
For the molecule `Cc1nnc(-c2ccc(OC3=NOC(c4ccc(Oc5ccccc5)cc4)C3)cc2)o1` (racemic) [I-159], the inhibition constant Ki is no more than 100 nM.
As for `FC(F)(F)c1ccc(OC2=NOC(c3ccc(Oc4ccccc4)cc3)C2)cn1` (racemic) [I-56], the Ki is no more than 100 nM.
On to `c1ccc(Oc2ccc(C3CC(n4cccn4)=NO3)cc2)cc1` (single isomer, unassigned) [I-35], for which the inhibition constant Ki is no less than 1000 nM.
With `O=C(NCc1ccccc1)c1ccc([C@H]2CC(Oc3ccc(C(=O)O)nc3)=NO2)cc1` (racemic) [I-215] the figure was 100 to 1000 nM; with `FC(F)(F)c1ccc(C2CC(Oc3cccc(-c4nnco4)c3)=NO2)cc1` (racemic) [I-217], no more than 100 nM.
With `CC1(c2ccc(OC(F)(F)F)cc2)CC(Oc2cncnc2)=NO1` (racemic) [I-129] the figure was no more than 100 nM.
Consider `CS(=O)(=O)c1ccc(OC2=NOC(c3ccc(OC(F)(F)F)cc3)C2)cn1` (racemic) [I-135], for which the inhibition constant Ki was no more than 100 nM.
In the case of `COC(=O)c1ccc(OC2=NO[C@@H](c3ccc(Br)cc3)C2)cn1` (racemic) [I-149], the inhibitory constant (Ki) is no more than 100 nM.
For the molecule `CN(CC(=O)O)C1=NOC(c2ccc(Oc3ccccc3)cc2)C1` (racemic) [I-244], the inhibition constant Ki fell in the range of 100 to 1000 nM.
As to `CC1C(Br)=NOC1c1ccc(Oc2ccccc2)cc1` (stereo not shown) [I-82], the Ki lay in the range of 100 to 1000 nM.
With `CC1C(Br)=NOC1c1ccc(Oc2ccccc2)cc1` (stereo not shown) [I-78], the Ki is no more than 100 nM.
As to `CC1(c2ccc(OC(F)(F)F)cc2)CC(Oc2ccc(C(=O)O)nc2)=NO1` (racemic) [I-113], the Ki was no more than 100 nM.
As to `BrC1=NOC(c2ccc(Oc3ncccn3)cc2)C1` (single isomer, unassigned) [I-13], the inhibitory constant (Ki) was no more than 100 nM.
Consider `O=C(c1ccc([C@H]2CC(Br)=NO2)cc1)N1CCCC1` (racemic) [I-209], for which the inhibitory constant (Ki) is no more than 100 nM.
With `O=C(OCc1ccccc1)c1ccc(C2CC(Br)=NO2)cc1` (single isomer, unassigned) [I-21] the figure was no more than 100 nM; with `c1ccc(Oc2ccc(C3CC(n4cncn4)=NO3)cc2)cc1` (single isomer, unassigned) [I-34], no less than 1000 nM.
In the case of `c1ccc(Oc2ccc(C3CC(Oc4cnc5ccoc5c4)=NO3)cc2)cc1` (racemic) [I-69], the Ki is no more than 100 nM.
`Fc1ccc(OC2=NOC(c3ccc(Oc4ccccc4)cc3)C2)cc1C(F)(F)F` (racemic) [I-60]: the Ki was no less than 1000 nM.
